This assay relates to Entamoeba histolytica. Kind of assay: Antiamoebic activity against Entamoeba histolytica. Format: functional, organism-based. As to conditions: Entamoeba histolytica; read-out: IC50.

What is called IC50 is the concentration that inhibits the measured activity by half.

In brackets after ≈: the same amount, converted by molar mass.

Consider `COc1ccc2cc1Oc1ccc(cc1)C[C@H]1c3c(cc(OC)c(O)c3Oc3cc4c(cc3OC)CCN(C)[C@@H]4C2)CCN1C` [HOMOAROMOLINE], for which the IC50 is 10.5 mg/L (≈ 17.3 µM).
The same measure for `O=c1c(O[C@@H]2O[C@H](CO)[C@H](O)[C@H](O)[C@H]2O)c(-c2ccc(O)c(O)c2)oc2cc(O)cc(O)c12` [HYPEROSIDE]: 144 mg/L (≈ 309 µM).
The figure for `COc1cc2c3c(c1OC)Oc1ccc(cc1)C[C@H]1c4c(cc(OC)c5c4Oc4ccc(cc4O5)C[C@H]3N(C)CC2)CCN1C` [INSULARINE] is 6.88 mg/L (≈ 11.3 µM); for `COc1cc2c3c(c1O)Oc1ccc(cc1)C[C@@H]1c4c(cc(OC)c(O)c4Oc4ccc(cc4)C[C@H]3N(C)CC2)CCN1C` [ISOCHONDODENDRINE] it is 10.5 mg/L (≈ 17.7 µM).
With `CN[C@H]1CC[C@@]2(C)C(=CC[C@H]3[C@@H]4CC[C@@H]5[C@H](C)N(C)C[C@@]54CC[C@@H]32)C1` [ISOCONESSIMINE], the IC50 is 20.9 mg/L (≈ 61 µM).
The figure for `COc1ccc2c(c1O)-c1c(OC)c(OC)cc3c1[C@H](C2)N(C)CC3` [ISOCORYDINE] is 50.1 mg/L (≈ 147 µM); for `C/C=C1/CN2CC[C@]34c5ccccc5N(C(C)=O)[C@H]3[C@H](C=O)[C@H]1C[C@H]24` [ISORETULINAL] it is 24.1 mg/L (≈ 71.8 µM); for `C/C=C1/CN2CC[C@]34c5ccccc5N(C(C)=O)C3[C@H](CO)[C@H]1C[C@H]24` (some centres not stated) [ISORETULINE] it is 21.9 mg/L (≈ 64.7 µM).
Regarding `C/C=C1/CN2CC[C@]34c5ccccc5N(C(C)=O)[C@H]3[C@H]([C@H]3OC[C@@H]5[C@H]6C[C@@H]7N(CC[C@@]78c7ccccc7N3[C@@H]58)C[C@H]6CC)[C@H]1C[C@H]24` [ISOSTRYCHNOBILINE], the IC50 was 20.9 mg/L (≈ 33.8 µM).
For the compound `CC[C@H]1CN2CCC3c4ccc(O)c([C@@H]5CCCN5C)c4NC3[C@@H]2C[C@@H]1C[C@H]1c2[nH]c3ccccc3c2CCN1C` (some centres not stated) [ISOSTRYCHNOPENTAMINE], the IC50 worked out at 10.4 mg/L (≈ 18.8 µM).
For `COc1ccc2cc1Oc1ccc(cc1)C[C@@H]1c3cc(c(OC)cc3CCN1C)Oc1c(OC)c(OC)cc3c1[C@H](C2)N(C)CC3` [ISOTETRANDRINE], the IC50 amounted to 13.8 mg/L (≈ 22.2 µM).
Take `COc1ccc2cc1Oc1ccc(cc1)C[C@H]1c3c(cc(OC)c4c3Oc3cc5c(cc3O4)CCN(C)[C@H]5C2)CCN1C` [ISOTRILOBINE]: the half-inhibitory concentration (IC50) is 6.22 mg/L (≈ 10.8 µM).
The figure for `C[C@H]1O[C@H](Oc2c(-c3ccc(O)cc3)oc3cc(O)cc(O)c3c2=O)[C@@H](O)[C@@H](O)[C@@H]1O` [KAEMPFEROL-3-O-RHAMNOSIDE] is 64.7 mg/L (≈ 150 µM); for `C[C@H]1O[C@H](OC[C@H]2O[C@@H](Oc3c(-c4ccc(O)cc4)oc4cc(O)cc(O)c4c3=O)[C@H](O)[C@@H](O)[C@@H]2O)[C@@H](O)[C@@H](O)[C@@H]1O` [KAEMPFEROL-3-O-RUTINOSIDE] it is 72.5 mg/L (≈ 122 µM); for `C[C@H]1O[C@H](OC[C@H]2O[C@@H](Oc3cc(O)c4c(=O)c(O)c(-c5ccc(O)cc5)oc4c3)[C@H](O[C@@H]3O[C@H](CO)[C@@H](O)[C@H](O)[C@H]3O)[C@@H](O)[C@@H]2O)[C@@H](O)[C@@H](O)[C@@H]1O` [KAEMPFEROL-7-O-RHAMNOSYL-SOPHOROSIDE] it is more than 125 mg/L.
The same measure for `O=c1c(O)c(-c2ccc(O)cc2)oc2cc(O)cc(O)c12` [KAEMPFEROL]: 7.93 mg/L (≈ 27.7 µM); for `O=c1cc(-c2ccc(O)c(O)c2)oc2cc(O)cc(O)c12` [LUTEOLIN]: 17.8 mg/L (≈ 62.2 µM).
The figure for `O=C(O)/C=C/c1ccccc1O[C@@H]1O[C@H](CO)[C@@H](O)[C@H](O)[C@H]1O` [MELILOTOSIDE] is 12.5 mg/L (≈ 38.3 µM); for `COC(=O)C1=CO[C@@H](O[C@@H]2O[C@H](CO)[C@@H](O)[C@H](O)[C@H]2O)[C@H]2[C@@H]1C=C[C@@]21C=C(C(O)c2ccc(O)c(OC)c2)C(=O)O1` (some centres not stated) [METHOXY-GAERTNEROSIDE] it is 2.3 mg/L (≈ 3.98 µM).
`CO[C@H]1[C@H](O)[C@@H](O)[C@@H](O)[C@H](O)[C@@H]1O` [METHYLINOSITOL]: the concentration for half-maximal inhibition (IC50) turned out to be 16.6 mg/L (≈ 85.4 µM).
The same measure for `COc1ccc(/C=C/C(=O)O[C@H]2[C@@H]3C=CO[C@@H](O[C@@H]4O[C@H](CO)[C@@H](O)[C@H](O)[C@H]4O)[C@@H]3[C@@]3(CO)O[C@@H]23)cc1O` [MINECOSIDE]: 0.398 mg/L (≈ 0.739 µM); for `O=c1c(O)c(-c2cc(O)c(O)c(O)c2)oc2cc(O)cc(O)c12` [MYRICETIN]: 115 mg/L (≈ 362 µM); for `O=C1C[C@@H](c2ccc(O)cc2)Oc2cc(O)cc(O)c21` [NARINGENIN]: 92.2 mg/L (≈ 339 µM).
As for `C/C=C1/CN2CCc3c(n(C)c4ccccc34)[C@@H]2C[C@@H]1Cc1nccc2c1[nH]c1ccccc12` [NBETA-METHYL USAMBARENSINE], the IC50 amounted to 4.12 mg/L (≈ 9.23 µM).
Turning to `COc1cc2c3c(c1O)-c1c(ccc(OC)c1OC)C[C@@H]3NCC2` [NORCORYDINE], the IC50 turned out to be 50 mg/L (≈ 153 µM).
For the compound `C/C=C1/CN2CC[C@]34c5ccccc5N(C(C)=O)[C@H]3[C@H](COC(C)=O)[C@H]1C[C@H]24` [O-ACETYLISORETULINE], the IC50 stood at 23.2 mg/L (≈ 61.1 µM).
The figure for `COc1cc2c3cc1Oc1c(O)c(OC)cc4c1[C@@H](Cc1ccc(O)c(c1)Oc1ccc(cc1)C[C@@H]3N(C)CC2)N(C)CC4` [OBAMEGINE] is 18.3 mg/L (≈ 30.8 µM); for `CC[C@H]1CN2CCC3c4ccccc4NC3[C@@H]2C[C@@H]1C[C@H]1NCCc2c1[nH]c1ccccc21` (some centres not stated) [OCHROLIFUANINE A] it is 1.3 mg/L (≈ 2.95 µM); for `COc1cc(O)c2c(=O)c(O)c(-c3ccc(OC)c(O)c3)oc2c1` [OMBUINE] it is 70.3 mg/L (≈ 213 µM).
`COc1ccc2cc1Oc1ccc(cc1)C[C@@H]1c3cc(c(OC)cc3CCN1C)Oc1c(OC)c(OC)cc3c1[C@@H](C2)N(C)CC3` [PHAEANTHINE]: the IC50 was determined as 10.8 mg/L (≈ 17.4 µM).
The same measure for `COc1cc(O)c2c(c1)C(=O)c1cc(C)cc(O)c1C2=O` [PHYSCION]: 12.7 mg/L (≈ 44.7 µM).
As to `O=C1C[C@@H](c2ccccc2)Oc2cc(O)cc(O)c21` [PINOCEMBRIN], the IC50 was 80.8 mg/L (≈ 315 µM).
The same measure for `COc1cc(O)c2c(c1)O[C@H](c1ccccc1)CC2=O` [PINOSTROBIN]: 184 mg/L (≈ 682 µM); for `CC[C@H]1CN2CCc3cc(OC)c(OC)cc3[C@@H]2C[C@@H]1CC1=NCCc2cc(O)c(OC)cc21` [PSYCHOTRINE]: 8.19 mg/L (≈ 17.6 µM); for `COC1=C[C@@H](C)[C@@H]2C[C@H]3OC(=O)C[C@H]4C(C)=C(OC)C(=O)[C@H]([C@@]2(C)C1=O)[C@@]34C` [QUASSIN]: 0.5 mg/L (≈ 1.29 µM).
`C[C@H]1O[C@H](Oc2c(-c3ccc(O)c(O)c3)oc3cc(O)cc(O)c3c2=O)[C@@H](O)[C@@H](O)[C@@H]1O` [QUERCETIN-3-O-RHAMNOSIDE]: the IC50 is 84.7 mg/L (≈ 189 µM).
Consider `O=c1c(O)c(-c2ccc(O)c(O)c2)oc2cc(O)cc(O)c12` [QUERCETIN], for which the IC50 was 114 mg/L (≈ 378 µM).
As for `C=C[C@H]1CN2CC[C@H]1C[C@@H]2[C@@H](O)c1ccnc2ccc(OC)cc12` [QUINIDINE], the IC50 was determined as 16.6 mg/L (≈ 51.2 µM).
For the compound `C=C[C@H]1CN2CC[C@H]1C[C@@H]2C(=O)c1ccnc2ccc(OC)cc12` [QUINIDINONE], the IC50 was 7.4 mg/L (≈ 23 µM).
The figure for `C=C[C@H]1CN2CC[C@H]1C[C@H]2[C@H](O)c1ccnc2ccc(OC)cc12` [QUININE] is 14.8 mg/L (≈ 45.6 µM); for `C/C=C1/CN2CC[C@]34c5ccccc5N(C(C)=O)[C@H]3[C@@H](C=O)[C@@H]1C[C@H]24` [RETULINAL] it is 25.2 mg/L (≈ 74.9 µM).
The same measure for `C/C=C1\CN2CC[C@]34c5ccccc5N(C(C)=O)[C@H]3[C@@H](CO)[C@H]1C[C@H]24` [RETULINE]: 21.9 mg/L (≈ 64.7 µM); for `O=c1c(O[C@@H]2OC[C@@H](O)[C@H](O)[C@H]2O)c(-c2ccc(O)c(O)c2)oc2cc(O)cc(O)c12` [REYNOUTRIN]: 109 mg/L (≈ 251 µM); for `COC1=C[C@]23CCN(C)[C@H](Cc4ccc(OC)c(O)c42)C3=CC1=O` [SALUTARIDINE]: 50 mg/L (≈ 153 µM).
The same measure for `CC[C@@H](C)C(=O)O[C@H]1C(=O)O[C@@H]2C[C@H]3C(C)=CC(=O)[C@@H](O)[C@]3(C)[C@H]3[C@@H](O)[C@H](O)[C@]4(C)OC[C@]32[C@@H]14` [SIMALIKALACTONE D]: 0.047 mg/L (≈ 0.0982 µM); for `O=C(/C=C/c1ccc(O)cc1)O[C@H]1[C@@H]2C=CO[C@@H](O[C@@H]3O[C@H](CO)[C@@H](O)[C@H](O)[C@H]3O)[C@@H]2[C@@]2(CO)O[C@@H]12` [SPECIOSIDE]: 0.198 mg/L (≈ 0.39 µM); for `C/C=C1\CN2CC[C@]34c5ccccc5N5[C@@H]([C@H]6[C@@H]7N(C(C)=O)c8ccccc8[C@@]78CCN7C/C(=C\C)[C@@H]6C[C@H]78)OC[C@@H]([C@H]53)[C@H]1C[C@H]24` [STRYCHNOBILINE]: 21.5 mg/L (≈ 35 µM).
`C=C[C@H]1CN2CC[C@@]3(C(=O)Nc4cc(O)ccc43)[C@@H]2C[C@@H]1C[C@H]1c2[nH]c3ccccc3c2CCN1C` [STRYCHNOFOLINE]: the IC50 worked out at 25.1 mg/L (≈ 51.9 µM).
`C=C[C@H]1CN2CCc3c([nH]c4c([C@H]5CCCN5C)c(O)ccc34)[C@@H]2C[C@@H]1C[C@H]1c2[nH]c3ccccc3c2CCN1C` [STRYCHNOPENTAMINE]: the IC50 amounted to 7.7 mg/L (≈ 14 µM).
The same measure for `COc1cc2c3cc1Oc1c(OC)c(OC)c(O)c4c1[C@H](Cc1ccc(cc1)Oc1cc(ccc1O)C[C@@H]3N(C)CC2)N(C)CC4` [THALISOPIDINE]: 50 mg/L (≈ 80 µM); for `COc1cc2c3cc1Oc1c(O)c(OC)cc4c1[C@H](Cc1ccc(O)c(c1)-c1cc(ccc1OC)C[C@H]3N(C)CC2)N(C)CC4` [TILIAGEINE]: 19.2 mg/L (≈ 31.6 µM).
As to `O=C(/C=C/c1ccc(O)cc1)OC[C@H]1O[C@@H](Oc2c(-c3ccc(O)cc3)oc3cc(O)cc(O)c3c2=O)[C@H](O)[C@@H](O)[C@@H]1O` [TILIROSIDE], the IC50 is 17.4 mg/L (≈ 29.4 µM).
As for `COc1ccc2cc1Oc1ccc(cc1)CC1=NCCc3cc(OC)c4c(c31)Oc1cc3c(cc1O4)CCN(C)[C@H]3C2` [TRIGILLETIMINE], the IC50 worked out at 23.3 mg/L (≈ 41.5 µM).
The figure for `CC[C@H]1CN2CCc3cc(OC)c(OC)cc3[C@@H]2C[C@@H]1C[C@H]1NCCc2c1[nH]c1ccc(O)cc21` [TUBULOSINE] is 1.6 mg/L (≈ 3.36 µM); for `C/C=C1/CN2CCc3c([nH]c4ccccc34)[C@@H]2C[C@@H]1Cc1nccc2c1[nH]c1ccccc12` [USAMBARENSINE] it is 0.49 mg/L (≈ 1.13 µM).
The figure for `C=C[C@H]1CN2CCc3c([nH]c4ccccc34)[C@@H]2C[C@@H]1C[C@H]1c2[nH]c3ccccc3c2CCN1C` [USAMBARINE] is 0.46 mg/L (≈ 1.02 µM).
The figure for `O=C(/C=C/c1ccc(O)c(O)c1)O[C@@H]1C2C=CO[C@H](O[C@@H]3O[C@H](CO)[C@@H](O)[C@H](O)[C@H]3O)C2[C@]2(CO)O[C@H]12` (some centres not stated) [VERMINOSIDE] is 0.0995 mg/L (≈ 0.19 µM).

Values taken from ChEMBL document CHEMBL3046784, “Exploring QSAR of antiamoebic agents of isolated natural products by MLR, ANN, and RTO” (Med Chem Res, 2012).
